Results published in ChEMBL document CHEMBL3352660, “Design, synthesis and pharmacological evaluation of novel polycyclic heteroarene ethers as PDE10A inhibitors: part II” (Bioorg Med Chem Lett, 2014).
pIC50: −log10 of the molar value. Calls of active or inactive are those of the source. The rule behind the calls is not given here.

Columns and labels:
[1] = biological target: cAMP and cAMP-inhibited cGMP 3',5'-cyclic phosphodiesterase 10A (Homo sapiens, UniProt Q9Y233); experiment: Inhibition of human recombinant GST-tagged PDE10A using [3H]-cAMP as substrate after 30 mins by scintillation proximity assay
[2] = biological target: cGMP-inhibited 3',5'-cyclic phosphodiesterase 3A (Homo sapiens) (UniProt Q14432); experiment: Inhibition of human recombinant PDE3A using cAMP as substrate at 1 uM after 30 mins by HTRF method
[3] = biological target: cGMP-inhibited 3',5'-cyclic phosphodiesterase 3A (Homo sapiens) (UniProt Q14432); experiment: Inhibition of human recombinant PDE3A using cAMP as substrate at 10 uM after 30 mins by HTRF method
[4] = biological target: 3',5'-cyclic-AMP phosphodiesterase 4D (Homo sapiens) (UniProt Q08499); experiment: Inhibition of human recombinant PDE4D using [3H]-cAMP as substrate at 10 uM after 30 mins by two-step radiometric assay
[5] = biological target: cGMP-specific 3',5'-cyclic phosphodiesterase (Homo sapiens) (UniProt O76074); experiment: Inhibition of human recombinant PDE5A using […] as substrate at 1 uM after 30 mins by scintillation proximity assay
[6] = biological target: High affinity 3',5'-cyclic-AMP phosphodiesterase 7A (Homo sapiens) (UniProt Q13946); experiment: Inhibition of human recombinant PDE7A using [3H]-cAMP as substrate at 1 uM after 30 mins by two-step radiometric assay
[7] = Metabolic stability in Wistar rat liver microsomes incubated for 10 mins prior to NADPH addition measured after 60 mins by LC/MS/MS analysis; format: ADME; conditions: read-out: Stability
[8] = Metabolic stability in CD1 mouse liver microsomes incubated for 10 mins prior to NADPH addition measured after 60 mins by LC/MS/MS analysis; format: ADME; conditions: read-out: Stability
[9] = Metabolic stability in Beagle dog liver microsomes incubated for 10 mins prior to NADPH addition measured after 60 mins by LC/MS/MS analysis; format: ADME, Canis lupus familiaris; conditions: read-out: Stability
[10] = Metabolic stability in cynomolgus monkey liver microsomes incubated for 10 mins prior to NADPH addition measured after 60 mins by LC/MS/MS analysis; format: ADME, Macaca fascicularis; conditions: read-out: Stability
[11] = Metabolic stability in human liver microsomes incubated for 10 mins prior to NADPH addition measured after 60 mins by LC/MS/MS analysis; format: ADME; conditions: read-out: Stability
[12] = Apparent permeability of the compound by PAMPA; format: physicochemical
[13] = Cmax in Swiss albino mouse at 10 mg/kg, po; format: ADME, organism-based; set-up: dose 10 mg/kg, route oral; conditions: in vivo
[14] = Tmax in Swiss albino mouse at 10 mg/kg, po; format: ADME, organism-based; set-up: dose 10 mg/kg, route oral; conditions: in vivo
[15] = AUC (0 to t) in Swiss albino mouse at 10 mg/kg, po; format: ADME, organism-based; set-up: dose 10 mg/kg, route oral; conditions: plasma
[16] = Half life in Swiss albino mouse at 10 mg/kg, po; format: ADME, organism-based; set-up: dose 10 mg/kg, route oral; conditions: in vivo
[17] = Cmax in Sprague-Dawley rat at 10 mg/kg, po; format: ADME, organism-based; set-up: dose 10 mg/kg, route oral; conditions: in vivo
[18] = Tmax in Sprague-Dawley rat at 10 mg/kg, po; format: ADME, organism-based; set-up: dose 10 mg/kg, route oral; conditions: in vivo
[19] = AUC (0 to t) in Sprague-Dawley rat at 10 mg/kg, po; format: ADME, organism-based; set-up: dose 10 mg/kg, route oral; conditions: plasma
[20] = Half life in Sprague-Dawley rat at 10 mg/kg, po; format: ADME, organism-based; set-up: dose 10 mg/kg, route oral; conditions: in vivo
Brain = experiment: Free drug level in Sprague-Dawley rat brain at 10 mg/kg, po after 1 hr by LC/MS/MS analysis; format: ADME, organism-based; set-up: dose 10 mg/kg, route oral; conditions: in vivo
Rattus norvegicus [21] = experiment: Antipsychotic activity in Sprague-Dawley rat psychosis model assessed as reversal of MK-801-induced locomotion at 1 mg/kg, po administered 2 hrs prior to MK-801 challenge measured every 5 mins for 1 hr starting 15 mins post MK-801 injection relative to vehicle-treated control; format: functional
Rattus norvegicus [22] = experiment: Antipsychotic activity in Sprague-Dawley rat psychosis model assessed as reversal of MK-801-induced locomotion at 10 mg/kg, po administered 2 hrs prior to MK-801 challenge measured every 5 mins for 1 hr starting 15 mins post MK-801 injection relative to vehicle-treated control; format: functional
Rattus norvegicus [23] = experiment: Antipsychotic activity in Sprague-Dawley rat psychosis model assessed as reversal of MK-801-induced stereotypy at 3 mg/kg, po administered 2 hrs prior to MK-801 challenge measured every 5 mins for 1 hr starting 15 mins post MK-801 injection relative to vehicle-treated control; format: functional
Rattus norvegicus [24] = experiment: Antipsychotic activity in Sprague-Dawley rat psychosis model assessed as reversal of MK-801-induced stereotypy at 10 mg/kg, po administered 2 hrs prior to MK-801 challenge measured every 5 mins for 1 hr starting 15 mins post MK-801 injection relative to vehicle-treated control; format: functional
Rattus norvegicus [25] = experiment: Antipsychotic activity in Sprague-Dawley rat psychosis model assessed as reversal of MK-801-induced ataxia at 1 mg/kg, po administered 2 hrs prior to MK-801 challenge measured every 5 mins for 1 hr starting 15 mins post MK-801 injection relative to vehicle-treated control; format: functional
Rattus norvegicus [26] = experiment: Antipsychotic activity in Sprague-Dawley rat psychosis model assessed as reversal of MK-801-induced ataxia at 3 mg/kg, po administered 2 hrs prior to MK-801 challenge measured every 5 mins for 1 hr starting 15 mins post MK-801 injection relative to vehicle-treated control; format: functional
Rattus norvegicus [27] = experiment: Antipsychotic activity in Sprague-Dawley rat psychosis model assessed as reversal of MK-801-induced ataxia at 10 mg/kg, po administered 2 hrs prior to MK-801 challenge measured every 5 mins for 1 hr starting 15 mins post MK-801 injection relative to vehicle-treated control; format: functional
Rattus norvegicus [28] = experiment: Antipsychotic activity in po dosed Sprague-Dawley rat psychosis model assessed as reversal of MK-801-induced locomotion administered 2 hrs prior to MK-801 challenge measured every 5 mins for 1 hr starting 15 mins post MK-801 injection relative to vehicle-treated control; format: functional
Rattus norvegicus [29] = experiment: Antipsychotic activity in Sprague-Dawley rat conditioned avoidance response model assessed as avoidance of shock at 1 mg/kg, po measured after 2 hrs relative to vehicle-treated control; format: functional
Rattus norvegicus [30] = experiment: Antipsychotic activity in Sprague-Dawley rat conditioned avoidance response model assessed as escape at 10 mg/kg, po measured after 2 hrs relative to vehicle-treated control; format: functional, organism-based; set-up: dose 10 mg/kg
Rattus norvegicus [31] = experiment: Antipsychotic activity in Sprague-Dawley rat conditioned avoidance response model assessed as response failure at 10 mg/kg, po measured after 2 hrs relative to vehicle-treated control; format: functional, organism-based; set-up: dose 10 mg/kg
Rattus norvegicus [32] = experiment: Antipsychotic activity in Sprague-Dawley rat prepulse inhibition deficit model assessed as reversal of MK-801-induced effect at 3 mg/kg, po administered 110 mins prior to MK-801 challenge relative to vehicle-treated control; format: functional; set-up: scale not given: the % may be the effect or the level left
Rattus norvegicus [33] = experiment: Antipsychotic activity in po dosed Sprague-Dawley rat prepulse inhibition deficit model assessed as reversal of MK-801-induced effect administered 110 mins prior to MK-801 challenge relative to vehicle-treated control; format: functional
Mus musculus = experiment: Ratio of ED50 for po dosed Swiss albino mouse assessed as inhibition of apomorphine-induced sniffing behavior administered 30 mins prior to apomorphine challenge to ED50 for po dosed Swiss albino mouse assessed as inhibition of apomorphine-induced climbing behavior administered 30 mins prior to apomorphine challenge; format: functional
[34] = Oral bioavailability in Swiss albino mouse at 10 mg/kg […]; format: ADME, organism-based; conditions: in vivo

Chain of cGMP-inhibited 3',5'-cyclic phosphodiesterase 3A (Homo sapiens) (Q14432 whole entry): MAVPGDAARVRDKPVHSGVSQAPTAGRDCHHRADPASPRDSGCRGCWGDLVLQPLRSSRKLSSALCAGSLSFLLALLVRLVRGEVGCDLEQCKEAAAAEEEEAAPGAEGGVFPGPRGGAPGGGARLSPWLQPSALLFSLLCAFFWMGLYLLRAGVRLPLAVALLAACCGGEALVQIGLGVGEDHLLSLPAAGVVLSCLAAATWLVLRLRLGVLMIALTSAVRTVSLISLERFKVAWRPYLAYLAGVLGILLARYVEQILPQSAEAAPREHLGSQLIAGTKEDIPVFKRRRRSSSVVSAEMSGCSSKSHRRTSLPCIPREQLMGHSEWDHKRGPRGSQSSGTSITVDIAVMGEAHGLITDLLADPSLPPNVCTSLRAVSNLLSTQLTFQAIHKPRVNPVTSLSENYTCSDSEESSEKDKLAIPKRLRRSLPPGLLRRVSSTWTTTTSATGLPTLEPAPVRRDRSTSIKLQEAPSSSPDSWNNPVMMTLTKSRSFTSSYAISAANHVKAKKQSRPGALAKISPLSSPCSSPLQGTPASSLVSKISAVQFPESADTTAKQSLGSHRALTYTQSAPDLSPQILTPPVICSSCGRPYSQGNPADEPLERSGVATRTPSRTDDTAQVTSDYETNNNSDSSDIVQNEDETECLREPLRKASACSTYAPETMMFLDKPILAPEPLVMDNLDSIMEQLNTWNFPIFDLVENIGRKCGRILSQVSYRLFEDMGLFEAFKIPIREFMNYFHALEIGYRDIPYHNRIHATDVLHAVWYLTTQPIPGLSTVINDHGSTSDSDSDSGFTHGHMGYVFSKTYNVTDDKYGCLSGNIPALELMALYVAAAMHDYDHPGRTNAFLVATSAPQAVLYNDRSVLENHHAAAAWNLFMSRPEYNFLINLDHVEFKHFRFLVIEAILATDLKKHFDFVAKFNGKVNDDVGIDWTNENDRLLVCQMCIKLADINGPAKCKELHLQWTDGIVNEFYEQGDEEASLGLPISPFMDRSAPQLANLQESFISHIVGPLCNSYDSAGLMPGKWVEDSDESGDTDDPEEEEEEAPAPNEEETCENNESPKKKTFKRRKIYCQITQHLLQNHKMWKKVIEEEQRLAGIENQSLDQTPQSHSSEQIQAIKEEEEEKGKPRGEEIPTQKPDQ
Chain of 3',5'-cyclic-AMP phosphodiesterase 4D (Homo sapiens) (Q08499 whole entry): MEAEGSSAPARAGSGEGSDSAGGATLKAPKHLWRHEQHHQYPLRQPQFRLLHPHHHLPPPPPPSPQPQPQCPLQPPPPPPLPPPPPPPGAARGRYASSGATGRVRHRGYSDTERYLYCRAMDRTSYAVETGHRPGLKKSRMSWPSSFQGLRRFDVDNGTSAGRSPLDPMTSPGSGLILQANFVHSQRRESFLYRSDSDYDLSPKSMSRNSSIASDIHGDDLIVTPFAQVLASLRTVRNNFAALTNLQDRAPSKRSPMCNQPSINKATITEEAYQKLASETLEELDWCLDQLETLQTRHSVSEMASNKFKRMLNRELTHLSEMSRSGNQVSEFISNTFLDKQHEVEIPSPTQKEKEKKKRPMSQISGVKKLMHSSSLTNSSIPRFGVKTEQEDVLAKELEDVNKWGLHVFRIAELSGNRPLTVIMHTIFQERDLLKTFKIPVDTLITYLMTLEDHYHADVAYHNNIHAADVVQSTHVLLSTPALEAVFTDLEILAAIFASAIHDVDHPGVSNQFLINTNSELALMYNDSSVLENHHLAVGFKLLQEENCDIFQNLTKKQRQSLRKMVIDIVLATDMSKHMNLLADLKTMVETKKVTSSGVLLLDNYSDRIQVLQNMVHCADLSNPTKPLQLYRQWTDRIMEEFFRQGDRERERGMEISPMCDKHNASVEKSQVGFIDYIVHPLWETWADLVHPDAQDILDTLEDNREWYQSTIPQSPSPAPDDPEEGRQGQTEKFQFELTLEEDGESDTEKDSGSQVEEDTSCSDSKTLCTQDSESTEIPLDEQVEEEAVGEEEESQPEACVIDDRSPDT
Chain of cAMP and cAMP-inhibited cGMP 3',5'-cyclic phosphodiesterase 10A (Q9Y233 whole entry): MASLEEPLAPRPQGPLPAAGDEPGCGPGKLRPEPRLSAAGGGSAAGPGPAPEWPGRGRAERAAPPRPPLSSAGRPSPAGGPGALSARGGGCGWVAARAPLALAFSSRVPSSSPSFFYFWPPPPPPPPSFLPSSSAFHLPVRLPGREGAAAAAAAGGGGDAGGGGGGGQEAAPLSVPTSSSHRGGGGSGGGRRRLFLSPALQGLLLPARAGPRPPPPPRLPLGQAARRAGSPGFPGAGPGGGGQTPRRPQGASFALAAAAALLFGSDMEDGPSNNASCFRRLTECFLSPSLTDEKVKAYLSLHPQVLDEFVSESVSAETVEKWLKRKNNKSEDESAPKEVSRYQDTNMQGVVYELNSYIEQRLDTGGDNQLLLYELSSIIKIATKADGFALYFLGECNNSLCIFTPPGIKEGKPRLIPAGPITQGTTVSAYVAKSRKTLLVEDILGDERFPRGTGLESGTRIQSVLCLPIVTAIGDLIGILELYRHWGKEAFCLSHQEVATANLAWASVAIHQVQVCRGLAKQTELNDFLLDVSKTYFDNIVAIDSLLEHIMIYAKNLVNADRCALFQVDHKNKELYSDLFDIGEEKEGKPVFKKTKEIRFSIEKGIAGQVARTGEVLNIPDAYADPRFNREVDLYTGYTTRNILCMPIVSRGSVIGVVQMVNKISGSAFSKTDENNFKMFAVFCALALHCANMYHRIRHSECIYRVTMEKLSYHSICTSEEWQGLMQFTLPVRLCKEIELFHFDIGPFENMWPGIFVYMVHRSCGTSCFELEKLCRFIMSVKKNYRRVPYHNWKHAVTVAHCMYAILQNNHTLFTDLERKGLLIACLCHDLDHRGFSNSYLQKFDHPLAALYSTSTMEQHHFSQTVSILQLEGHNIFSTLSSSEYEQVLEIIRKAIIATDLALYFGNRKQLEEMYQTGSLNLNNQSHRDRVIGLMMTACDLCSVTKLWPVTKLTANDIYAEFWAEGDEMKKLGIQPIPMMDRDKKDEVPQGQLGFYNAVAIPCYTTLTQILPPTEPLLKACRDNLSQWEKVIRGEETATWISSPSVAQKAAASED
Chain of High affinity 3',5'-cyclic-AMP phosphodiesterase 7A (Homo sapiens) (Q13946 whole entry): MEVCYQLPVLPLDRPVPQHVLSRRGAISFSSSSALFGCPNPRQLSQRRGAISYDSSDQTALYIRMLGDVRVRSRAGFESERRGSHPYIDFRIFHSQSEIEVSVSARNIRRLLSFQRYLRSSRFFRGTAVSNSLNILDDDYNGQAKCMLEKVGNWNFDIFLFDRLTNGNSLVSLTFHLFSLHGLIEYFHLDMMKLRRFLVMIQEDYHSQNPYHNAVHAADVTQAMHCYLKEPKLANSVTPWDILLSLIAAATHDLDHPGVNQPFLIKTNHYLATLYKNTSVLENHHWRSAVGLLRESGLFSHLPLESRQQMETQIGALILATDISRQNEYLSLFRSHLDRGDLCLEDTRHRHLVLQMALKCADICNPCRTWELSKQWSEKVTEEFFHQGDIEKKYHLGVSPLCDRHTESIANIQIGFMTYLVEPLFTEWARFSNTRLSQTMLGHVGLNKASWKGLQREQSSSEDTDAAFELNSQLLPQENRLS

pIC50 [1]: 8.20
inhibition [2]: 0%
inhibition [3]: 6.3%
inhibition [4]: 33.8%
inhibition [5]: 0.8%
inhibition [6]: 2.5%
remaining at 1 h [7]: 51%
remaining at 1 h [8]: 46.2%
remaining at 1 h [9]: 65.8%
remaining at 1 h [10]: 70.5%
remaining at 1 h [11]: 77.4%
Papp [12]: 2.97 ×10⁻⁶ cm/s
Cmax [13]: 5490 ng/mL
Tmax [14]: 0.5 h
AUC(0-t) [15]: 31.6 µg·h/mL
half-life [16]: 10.4 h
Cmax [17]: 27600 ng/mL
Tmax [18]: 2 h
AUC(0-t) [19]: 410 µg·h/mL
half-life [20]: 4.4 h
Drug uptake(free) (Brain): 5 nM
bioavailability [34]: 8%
SMILES: Cn1cc(-c2ccc(Oc3nccnc3-c3ccncc3)cc2)c2ncccc21
Activity (Rattus norvegicus [21]): 27%
Activity (Rattus norvegicus [22]): 90%
Activity (Rattus norvegicus [23]): 96%
Activity (Rattus norvegicus [24]): 99%
Activity (Rattus norvegicus [25]): 59%
Activity (Rattus norvegicus [26]): 59%
Activity (Rattus norvegicus [27]): 86%
ED50 (Rattus norvegicus [28]): 1.63 mg/kg
Activity (Rattus norvegicus [29]): 17%
Activity (Rattus norvegicus [30]): Active
Activity (Rattus norvegicus [31]): Active
Activity (Rattus norvegicus [32]): 64%
Activity (Rattus norvegicus [33]): Dose-dependent effect
ED50 (Rattus norvegicus [33]): 1.47 mg/kg
Ratio ED50 (Mus musculus): 10.63
